# Legend:
# [1] = system: Gli responsive luciferase reporter (endogenous Gli); assay: Gli responsive luciferase reporter in Sufu-/- cells; format: cell-based, mouse; details: 72 hrs
# Description: NIH3T3-E1 cells cultured in 24 well-plates at 90% confluence were transiently transfected with 0.1 μg of Smad response-element reporter (SBE-Luciferase) plasmid (Qiagen), or with 0.1 μg of Gli response-element reporter (pGL3b-8xGli-Luciferase) plasmid, and 10 ng of pSV40-Renilla-Luciferase plasmid (Promega, Madison, WI, USA) with or without co-transfection with 10ng of Gli1 overexpression vector, pSRα-Gli1 using a Lipofectamine LTX Plus transfection reagent, as previously described. Sufu-/- cells cultured in 24 well-plates at 90% confluence were transiently transfected with 0.1μg of pGL3b-8xGli-Luciferase plasmid, and 10 ng of pSV40-Renilla-Luciferase plasmid. 6 hrs after transfection, cells were treated with test agents for 72 h. […] Then the firefly and Renilla luciferase activities were measured using a dual luciferase kit (Promega) and a GloMax-96 Microplate Luminometer (Promega) or a plate reader-SpectraMax iD3 (Molecular Devices, San Jose, CA, USA). […]
# Figure 5 Oxy210 acts downstream of Smo. […] After 72 h, RNA was extracted and analyzed by Q-RT-PCR for the expression of Hh target genes Gli1 and Hip, normalized to Oaz1 expression. […] Luciferase activity was measured and normalized to the Renilla luciferase activity. […]
# [2] = system: phosphorylation of Smad2 and Smad3 in A549 cells; assay: Western blot of TGFβ-induced Smad2/Smad3 phosphorylation; format: cell-based, human; details: 10 μM pretreatment 3 h, TGFβ 4 ng/mL
# Description: A549 cells were pretreated with DMSO, Oxy186 (10 μM) or Oxy210 (10 μM) for 3 h, then treated with TGFβ (4 ng/mL) for the indicated times. After treatment, the cells were harvested in Triton lysis buffer (1% Triton X-100, 25 mM Tris-HCl, pH 7.4, 300 mM NaCl with protease and phosphatase inhibitors), and the supernatant was collected as cell lysates after centrifugation (15,000× g, 25 min at 4 °C). A Bradford assay was used to measure the protein concentration. […] proteins of each sample were loaded into the wells of an 8% SDS-PAGE gel, and the proteins were transferred to a PVDF membrane after SDS-PAGE gel separation. […] Densitometry readings were performed with ImageJ software (Version 1.52a, NIH, Bethesda, MD, USA, see Supplementary Materials).
# Figure 11 Inhibition of TGFβ-induced Smad2/3 phosphorylation and transcriptional activity. […] Luciferase activity was measured and normalized to the Renilla luciferase activity. […]
compound,measurement,setting,value
"C[C@]12CC[C@H]3[C@@H](CC=C4C[C@@H](O)CC[C@@]43C)[C@@H]1CC[C@@H]2[C@](C)(O)CCc1cccnc1 [Oxy210, (3S,8S,9S,10R,13S,14S,17S)-17-((R)-2-hydroxy-4-(pyridin-3-yl)butan-2-yl)-10,13-dimethyl-2,3,4,7,8,9,10,11,12,13,14,15,16,17-tetradecahydro-1H-cyclopenta[a]phenanthren-3-ol]",activity of Gli responsive luciferase reporter,[1],significantly inhibited
same,TGFβ-induced phosphorylation of Smad2 and Smad3,[2],robustly inhibited

# Reference: article PMC6829886, “Inhibition of Non-Small Cell Lung Cancer Cells by Oxy210, an Oxysterol-Derivative that Antagonizes TGFβ and Hedgehog Signaling” (Cells, 2019)
